In brackets after ≈: the same amount, converted by molar mass. Like-named read-outs stand apart in the source and are kept apart here.
Columns and labels:
[1] = system: human dermal fibroblast (HDF) cells; conditions: for Survival vs. Control: HDF cell survival relative to DMSO-only control at the first (or only) Non-Toxic Concentration value; for Non-Toxic Concentration: human, 48 h
[2] = biological target: Mtb Pks13-TE domain (wild-type) (Mycobacterium tuberculosis, UniProt I6X8D2); assay: biochemical; assay type: biochemical
Mtb Pks13-TE domain (wild-type), sequence (I6X8D2 1451-1733): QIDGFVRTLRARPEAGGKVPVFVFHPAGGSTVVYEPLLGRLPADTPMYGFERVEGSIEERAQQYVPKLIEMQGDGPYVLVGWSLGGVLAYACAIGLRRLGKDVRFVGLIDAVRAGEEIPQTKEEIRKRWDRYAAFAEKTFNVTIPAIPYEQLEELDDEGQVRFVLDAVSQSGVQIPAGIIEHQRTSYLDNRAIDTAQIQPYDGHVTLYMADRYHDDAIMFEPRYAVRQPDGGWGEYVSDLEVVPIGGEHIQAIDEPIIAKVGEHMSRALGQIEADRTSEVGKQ

Mtb strain mc^27000 = assay: microbe, parasite or virus in culture; assay type: cell-based, Mycobacterium tuberculosis; conditions: for inhibition at 20 µM / inhibition at 40 µM: read-out: percentage inhibition observed (incomplete inhibition)
[3] = Pks13-TE, 20 μM 4-MUH, read-out: IC50
[4] = Pks13 enzyme inhibition, read-out: Pks13 IC50
[5] = Mycobacterium tuberculosis, Mtb mc^27000, liquid medium, 96-well plates, read-out: MIC
[6] = Mtb mc^27000, liquid medium, 96-well plates, read-out: MIC
[7] = Mtb Pks13-TE domain, mean ± s.d. of triplicates, read-out: IC50

Row | Compound | IC50 [2, 3] | MIC (Mtb strain mc^27000; [5]) | also measured
1 | CCOC(=O)c1c(-c2ccc(OC)cc2)oc2ccc(O)c(CN3CCCCC3)c12 [compound 21] | 0.29 µM | 2.6 µM (≈ 1.06 µg/mL) | Survival vs. Control [1]: 104%; Non-Toxic Concentration [1]: 50 µM; IC50 [2, 4]: 0.29 µM; MIC (Mtb strain mc^27000; Mycobacterium tuberculosis, read-out: Pks13 MIC): 2.6 µM (≈ 1.06 µg/mL)
2 | O=C(c1c(-c2ccccc2)oc2ccc(O)c(CN3CCCCC3)c12)N1CCOCC1 [compound 46] | 0.34 µM | > 20 µM | –
3 | CCOC(=O)c1c(-c2ccccc2)oc2ccc(O)c(CN3CCC(N4CCCCC4)CC3)c12 [compound 98] | > 20 µM | – | inhibition at 20 µM (Mtb strain mc^27000; Mycobacterium tuberculosis): 40%
4 | CNC(=O)c1c(-c2ccnc(OC)c2)oc2cc(OC)cc(CN3CCCCC3)c12 [compound 86] | > 20 µM | > 20 µM | –
5 | Oc1ccc2nc(-c3ccccc3)[nH]c2c1CN1CCCC1 [compound 110] | 6.8 µM | 22 µM (≈ 6.45 µg/mL) | –
6 | CNC(=O)c1c(-c2cccc(O)c2)oc2ccc(O)c(CN3CCCCC3)c12 [compound 57] | 0.27 µM | 0.44 µM (≈ 0.167 µg/mL) | –
7 | CNC(=O)c1c(-c2ccccc2)oc2cc(OCC(=O)OC)cc(CN3CCCCC3)c12 [compound 93] | 10 µM | – | inhibition at 40 µM (Mtb strain mc^27000; Mycobacterium tuberculosis): 16%
8 | CNC(=O)c1c(-c2ccc(O)cc2)oc2ccc(O)c(CN3CCC(CO)CC3)c12 [compound 121] | 0.6 µM | 40 µM (≈ 16.4 µg/mL) | –
9 | CCOC(=O)c1c(-c2ccccc2)oc2ccc(O)c(CCCN3CC[C@@H](O)C3)c12 [compound 175] | 0.95 µM | 6.1 µM (≈ 2.5 µg/mL) | –
10 | CCOC(=O)c1c(-c2ccccc2)oc2ccc(O)c(CN3CCC(O)CC3)c12 [compound 117] | 0.18 µM | 5.6 µM (≈ 2.21 µg/mL) | –
11 | CCOC(=O)c1c(-c2ccccc2)oc2cc([N+](=O)[O-])c(O)c(CN3CCCCC3)c12 [compound 26] | 1.3 µM | 5.4 µM (≈ 2.29 µg/mL) | –
12 | CNC(=O)c1c(-c2ccc(O)cc2)oc2ccc(O)c(CN3CCCC(CO)C3)c12 (centres unmarked) [compound 127] | 1.1 µM | 5 µM (≈ 2.05 µg/mL) | –
13 | CCOC(=O)c1c(-c2ccccc2)oc2cc(O)cc(CCN)c12 [compound 55] | 4 µM | – | MIC (Mtb strain mc^27000; [6]): >20 µM
14 | CNC(=O)c1c(-c2ccccc2)oc2ccc(O)c(CCNC3CCCC3)c12 [compound 141] | 1.4 µM | – | MIC (Mtb strain mc^27000; [6]): 10.0 µM (≈ 3.78 µg/mL)
15 | CCOC(=O)c1c(-c2ccccc2)oc2ccc(O)c(CCN3CCOCC3)c12 [compound 229] | 5.8 µM | 3.2 µM (≈ 1.27 µg/mL) | –
16 | O=C(O)c1c(-c2ccccc2)oc2ccc(O)c(CN3CCCCC3)c12 [compound 14] | – | – | IC50 [2, 7]: 6.6 ± 0.7 µM; loss / decrease in inhibitory activity compared to compound I ([2]; relative to compound I): ~20 fold; whole-cell activity (Mtb growth inhibition), in words (Mtb strain mc^27000; Mtb mc^27000): completely abolished
17 | CCOC(=O)CCCC1CCN(CCCc2c(O)ccc3oc(-c4ccccc4)c(C(=O)OCC)c23)C1 (centres unmarked) [compound 161] | 0.8 µM | – | MIC (Mtb strain mc^27000; [6]): 1.0 µM (≈ 0.508 µg/mL)
18 | CC(C)(C)OC(=O)NC1CCN(C(=O)c2c(-c3ccccc3)oc3ccc(O)c(CN4CCCCC4)c23)CC1 [compound 53] | 0.63 µM | – | MIC (Mtb strain mc^27000; [6]): 6.6 µM (≈ 3.52 µg/mL)
19 | CNC(=O)c1c(-c2ccccc2)oc2ccc(OC)c(C(O)c3ccccc3)c12 (centres unmarked) [compound 20] | 50 µM | 50 µM (≈ 19.4 µg/mL) | –
20 | CNC(=O)c1c(-c2ccccc2)oc2cc(OCC(N)=O)cc(CN3CCCCC3)c12 [compound 90] | – | – | inhibition at 40 µM ([2]; at 40 μM, read-out: percentage inhibition observed (IC50 column, incomplete inhibition)): 31%; inhibition at 20 µM (Mtb strain mc^27000; Mycobacterium tuberculosis): 13%
21 | CNC(=O)c1c(-c2ccccc2)oc2ccc(O)c(CCCN3CCCC3)c12 [compound 105] | 5 µM | 5 µM (≈ 1.89 µg/mL) | –
22 | CCOC(=O)c1c(-c2ccccc2)oc2ccc(O)c(CCCN3CC[C@@H]3CO)c12 [compound 212] | 1.94 µM | 1.1 µM (≈ 0.45 µg/mL) | –
23 | CCOC(=O)c1c(-c2ccccc2)oc2ccc(O)c(CCN3CCC(C#N)CC3)c12 [compound 228] | 3.6 µM | 5 µM (≈ 2.09 µg/mL) | –
24 | NC1CCN(C(=O)c2c(-c3ccccc3)oc3ccc(O)c(CN4CCCCC4)c23)CC1 [compound 54] | 5.3 µM | 20 µM (≈ 8.67 µg/mL) | –
25 | CNC(=O)c1c(-c2ccccc2)oc2cc(OCCN)cc(CN3CCCCC3)c12 [compound 91] | 10 µM | – | inhibition at 40 µM (Mtb strain mc^27000; Mycobacterium tuberculosis): 34%

Row | Compound | IC50 [2, 3] | MIC (Mtb strain mc^27000; [5]) | also measured
26 | CCOC(=O)c1c(-c2cccc(O)c2)oc2ccc(O)c(CN3CCCCC3)c12 [compound 50] | 0.23 µM | – | MIC (Mtb strain mc^27000; [6]): 0.23 µM (≈ 0.091 µg/mL)
27 | CCOC(=O)c1c(-c2ccccc2)oc2ccc(O)c(CN3CCCC(CO)C3)c12 (centres unmarked) [compound 132] | 0.42 µM | – | MIC (Mtb strain mc^27000; [6]): 10 µM (≈ 4.09 µg/mL)
28 | CCOC(=O)CCCC1CCN(CCCc2c(O)ccc3oc(-c4ccccc4)c(C(=O)OCC)c23)C1 (centres unmarked) [compound 172] | 0.7 µM | 2.9 µM (≈ 1.47 µg/mL) | –
29 | CCOC(=O)c1c(-c2ccccc2)oc2ccc(O)c(CCN[C@@H](Cc3c[nH]cn3)C(=O)O)c12 [compound 245] | 2.7 µM | > 40 µM | –
30 | CCOC(=O)c1c(-c2ccccc2)oc2cc(OC)cc(CN3CCCCC3)c12 [compound 37] | 29 µM | – | MIC (Mtb strain mc^27000; [6]): 7.3 µM (≈ 2.87 µg/mL)
31 | CCOC(=O)c1c(-c2ccccc2)oc2ccc(O)c(CN(C)C)c12 [compound 109] | 1.57 ± 0.15 µM | – | IC50 [2, 7]: 1.57 ± 0.15 µM; loss of inhibitory activity / higher IC50 against Pks13-TE compared to the test compound ([2]; relative to test compound): > 6 fold; higher MIC compared to the test compound (Mtb strain mc^27000): 3 fold; MIC (Mtb strain mc^27000; Mtb mc^27000, liquid medium, 96-well plates): 7.3 ± 0.3 µM (≈ 2.48 µg/mL); MIC (Mtb strain mc^27000; […], mean ± s.d. of triplicates, NI: no inhibition): 7.3 ± 0.3 µM (≈ 2.48 µg/mL)
32 | CC[C@@H](CO)NCCc1c(O)ccc2oc(-c3ccccc3)c(C(=O)NC)c12 [compound 235] | 2.3 µM | > 40 µM | –
33 | CNC(=O)c1c(-c2ccc(O)cc2)oc2ccc(O)c(CN3CCC(C#N)CC3)c12 [compound 124] | 0.25 µM | 20 µM (≈ 8.11 µg/mL) | –
34 | CCOC(=O)c1c(-c2ccccc2)oc2ccc(O)c(CCCN3CCC(CO)CC3)c12 [compound 166] | 0.5 µM | 6.1 µM (≈ 2.67 µg/mL) | –
35 | OCc1c(-c2ccccc2)oc2ccc(O)c(CN3CCC(N4CCCCC4)CC3)c12 [compound 99] | – | – | IC50 ([2]; Pks13-TE, read-out: IC50 (μM), given as NB / NI): > 20 µM; inhibition at 20 µM (Mtb strain mc^27000; Mycobacterium tuberculosis): 28%
36 | CNC(=O)c1c(-c2ccc(O)cc2)oc2ccc(O)c(CN3CCC(C(N)=O)CC3)c12 [compound 123] | 1.6 µM | > 40 µM | –
37 | CCOC(=O)/C=C/CC1CCN(CCCc2c(O)ccc3oc(-c4ccccc4)c(C(=O)OCC)c23)C1 (centres unmarked) [compound 171] | 0.5 µM | 2.7 µM (≈ 1.37 µg/mL) | –
38 | CCOC(=O)c1c(-c2ccc(O)cc2)oc2ccc(O)c(CN3CCCC(CO)C3)c12 (centres unmarked) [compound 134] | 0.4 µM | 2.5 µM (≈ 1.06 µg/mL) | –
39 | CCOC(=O)c1c(-c2ccccc2)oc2ccc(O)c(CCCN3CCSC3C)c12 (centres unmarked) [compound 174] | 1.25 µM | 4.7 µM (≈ 2 µg/mL) | –
40 | CCOC(=O)c1c(-c2ccc(F)cc2)oc2cc(O)cc(CN3CCCCC3)c12 [compound 49] | 0.4 µM | – | MIC (Mtb strain mc^27000; [6]): >10 µM
41 | CCNC(=O)c1c(-c2ccccc2)oc2ccc(O)c(CN3CCCCC3)c12 [compound 18] | 0.36 µM | 14 µM (≈ 5.3 µg/mL) | –
42 | CCOC(=O)c1c(-c2ccc(F)cc2)oc2ccc(O)c(CN3CCCCC3)c12 [compound 25] | 0.35 µM | – | MIC (Mtb strain mc^27000; [6]): 1.5 µM (≈ 0.596 µg/mL)
43 | CCOC(=O)c1c(-c2ccccc2)oc2ccc(O)c(CCCN3CCC(CCCO)C3)c12 (centres unmarked) [compound 162] | 2.7 µM | 2.5 µM (≈ 1.13 µg/mL) | –
44 | CNC(=O)c1c(-c2ccccc2)oc2ccc(O)c(CCN3CC[C@H](Br)C3)c12 [compound 231] | 5 µM | 8 µM (≈ 3.55 µg/mL) | –
45 | COC(=O)n1c(-c2ccccc2)c(Br)c2cccc(CN3CCCCC3)c21 [compound 108] | 2 µM | – | inhibition at 20 µM (Mtb strain mc^27000; Mycobacterium tuberculosis): 26%
46 | CCOC(=O)c1c(-c2ccccc2)oc2ccc(O)c(CCCN3CC[C@H](O)C3)c12 [compound 186] | 0.62 µM | 10 µM (≈ 4.09 µg/mL) | –
47 | CCOC(=O)c1c(-c2ccccc2)oc2ccc(O)c(CCCN3CC(F)C3)c12 [compound 199] | 2.5 µM | 1.2 µM (≈ 0.477 µg/mL) | –
48 | CCOC(=O)c1c(-c2ccc(F)cc2)oc2cc(O)cc(CCNS(C)(=O)=O)c12 [compound 74] | – | – | Survival vs. Control [1]: 88%; Non-Toxic Concentration [1]: 25 µM; IC50 [2, 4]: 20 µM
49 | CCOC(=O)c1c(-c2ccc(F)cc2)oc2cc(O)cc(CCNC(C)CO)c12 (centres unmarked) [compound 77] | 6 µM | 3.3 µM (≈ 1.32 µg/mL) | –
50 | CCOC(=O)c1c(-c2ccccc2)oc2ccc(O)c(CCCN3CC[C@H]3CO)c12 [compound 213] | 2.3 µM | – | MIC (Mtb strain mc^27000; [6]): 0.97 µM (≈ 0.397 µg/mL)

Reference: patent publication US20180111913A1, “SUBSTITUTED BENZOFURAN DERIVATIVES AS NOVEL ANTIMYCOBACTERIAL AGENTS” (priority 2015, published 2018)
